Source: patent publication US20210130401A1, “PEPTIDOMIMETIC INHIBITORS OF THE WDR5-MLL INTERACTION” (THE REGENTS OF THE UNIVERSITY OF MICHIGAN, priority 2017, published 2021)
Like-named read-outs stand apart in the source and are kept apart here. Starred links: 1 amine or outer side, 2 acyl side, 3 side chain; linkers in the order of their positions; H or OH if unused. Positions of bridges follow the written chain, without caps; N, C: chain ends. Non-standard residues stand in square brackets, D forms with d. Residues, ends and D or L forms follow the SMILES beside them. *: point of attachment. dαMeDab = C[C@](CCN[*:3])(N[*:1])C(=O)[*:2]; Arg(Me) = CNC(=N)NCCC[C@H](N)C(=O)O; dPhg = N[C@@H](C(=O)O)c1ccccc1; dDab = NCC[C@@H](N)C(=O)O; Isobutyryl = CC(C)C(=O)*; Abu = CC[C@H](N)C(=O)O

What was measured:
[1] = molecular target: T1, WDR5 (Homo sapiens, UniProt P61964); assay: fluorescence polarization (FP) based competitive binding assay to WDR5 protein
T1 construct: N-terminal His-tagged WDR5 protein (residues 24-334), named WDR5Δ23; made in house; host or cells: E. coli Rosetta 2 (DE3)
Description: The plates were incubated at room temperature on a shaker for 3h, and then the mP values were measured using the Tecan Infinite M-1000 plate reader (Tecan U.S., Research Triangle Park, N.C.).

[2] = test system: MV4;11 leukemia cells carrying MLL-AF4 fusion; assay: cell viability assay (WST-8), MV4;11; assay type: cell-based; details: Homo sapiens, MV4-11, 96 h, read-out: Cell Growth Inhibition IC50 (μM) MV-4-11
Description: (§2) To assess cell viability, MOLM-13 leukemia cells carrying MLL-AF9 fusion, MV4;11 leukemia cells carrying MLL-AF4 fusion or HL-60 leukemia cells carrying no MLL fusion were seeded 1×10^4 cell/well in 96-well plates and treated with an inhibitor for 4 days at different concentrations, in culture media containing 0.2% DMSO as the final concentration. Cell viability was determined using the WST-8 cell proliferation assay kit (Dojindo Molecular Technologies) according to manufacturer's instructions. Three independent experiments in triplicates were performed.

[3] = test system: HL-60 leukemia cells carrying no MLL fusion; assay: cell viability assay (WST-8), HL-60; assay type: cell-based; details: for IC50: read-out: Cell Growth Inhibition IC50 (μM) HL-60
Description: Cell viability was determined using the WST-8 cell proliferation assay kit (Dojindo Molecular Technologies) according to manufacturer's instructions. Three independent experiments in triplicates were performed.

[4] = molecular target: T2, MLL complex (Homo sapiens, UniProt P61964); assay: AlphaLISA MLL HMT functional assay (cell-free); assay type: biochemical; details: read-out: Inhibition of MLL HMT Activity IC50 ± SD
T2 construct: full length human WDR5 with N-terminal 6×His tag; purchased Activmotif (Carlsbad, Calif.)
Description: To avoid multiple wash and transfer steps, an amplified luminescent proximity homogeneous assay (AlphaLISA) was developed and optimized to evaluate the MLL HMT inhibitory activities of the Compounds of the Disclosure.
In this assay, recombinant nucleosomes are initially treated with the MLL complex for methylation in the presence of S-Adenosyl methionine (SAM) as cofactor before stopping the reaction with high salt buffer. Then, anti-H3K4Mel/2 antibody, which is covalently linked to acceptor beads, and biotinylated anti-H3 (C-terminus) antibody were added.
Anti-Histone H3 Lysine 4 (H3K4mel-2) AlphaLISA acceptor beads, AlphaScreen Streptavidin donor beads and biotinylated anti-H3 (C-terminus) antibody were obtained from PerkinElmer Life Sciences (Waltham, Mass.). 2.5 μl of compound serial dilutions in assay buffer with 4% DMSO and 5 μl of pentameric MLL complex solution were added into a white low volume 384 well microtiter plate which was incubated for 30 minutes with gentle shaking at room temperature, followed by adding 2.5 μl of SAM/Nucleosome mixture. The methylation reaction was performed in 50 mM Tris, pH 8.5 with 1 mM DTT and 0.01% Tween-20 added right before the assay. Final concentrations of MLL complex, SAM, and nucleosomes were 5 nM, 200 nM, and 3 nM, respectively. Final DMSO in the reaction mixture was 1%. The reaction was allowed to perform for 120 minutes in dark with gentle shaking at room temperature. […] 5 μL of high salt stopping solution (50 mM Tris, pH 7.4 with 1 M NaCl, 0.1% Tween-20, and 0.3% poly-L-Lysine) was added to stop the methylation reactions for 15 minutes. 5 μl of 5× acceptor beads/biotinylated anti-H3 antibody mixture in detection buffer (50 mM Tris, pH 7.4 with 0.3 M NaCl, 0.1% Tween-20, and 0.001% poly-L-Lysine) was added, followed by 1 hour incubation at room temperature to allow full interaction between antibodies and methylated nucleosomes. Add 5 μL of 5× streptavidin donor beads in detection and incubate 30 minutes.

[5] = test system: MOLM-13 leukemia cells carrying MLL-AF9 fusion; assay: cell viability assay (WST-8), MOLM-13; assay type: cell-based; details: Homo sapiens, MOLM-13, 96 h, read-out: Cell Growth Inhibition IC50 (μM) MOLM-13
Description: as §2

[6] = stability in cell culture media; assay type: physicochemical; details: up to 7 days; data not shown
Description: To assess the effect of long-term treatment of compound Cpd. No. 5 on leukemia cells, MOLM-13 and MV4;11 cell lines were plated at a density of 5×10^4 cell/ml in 24-well plates (2 ml/well), and treated with the relevant concentrations. On day 4, cell viability for each treatment was measured using the WST-8 cell count kit. Then 10% of viable cells from each well were transferred to freshly prepared medium containing corresponding concentrations of compound Cpd. No. 5 and cultured for additional 3 days. On day 7, cell viability for each treatment was determined. In this experiment, 100,000 cells were seeded in each well in 24-well plates, whereas the cell growth inhibition data obtained for Cpd. No. 64 in Table 2 was obtained by seeding 10,000 cells in 96-well plates. Additionally, Cpd. No. 5 is stable in cell culture media up to 7 days (data not shown).

[7] = molecular target: MLL3 (Homo sapiens, UniProt Q8NEZ4); assay: HMT assay, SET1 family specificity; assay type: biochemical; details: up to 100 μM; data not shown
Description: (§1) The specificity of Cpd. No. 5 was tested against MLL and other SET1 family members (MLL2, MLL3, MLL4, SET1a and SET1b) using the previously published HMT assays (Karatas et al., J. Med. Chem. 53:5179-5185 (2010)). Cpd.

[8] = molecular target: SET1a (Homo sapiens, UniProt O15047); assay: HMT assay, SET1 family specificity; assay type: biochemical; details: up to 100 μM; data not shown
Description: as §1

[9] = test system: MLL4; assay: HMT assay, SET1 family specificity; assay type: biochemical; details: up to 100 μM; data not shown
Description: as §1

[10] = test system: MLL2; assay: HMT assay, SET1 family specificity; assay type: biochemical; details: up to 100 μM; data not shown
Description: as §1

[11] = molecular target: SET1b (Homo sapiens, UniProt Q9UPS6); assay: HMT assay, SET1 family specificity; assay type: biochemical; details: up to 100 μM; data not shown
Description: as §1

[12] = calculated from IC50 by published equation, read-out: Binding Affinity to WDR5 Ki ± SD
[13] = read-out: Binding Affinity to WDR5 IC50 ± SD
[14] = Homo sapiens, HL-60, 96 h, 4 days treatment

Row | Ki [1, 12] [nM] | IC50 [1, 13] [nM] | IC50 ([2]; 4 days treatment) [µM] | IC50 [3, 14] [µM] | IC50 ([5]; 4 days treatment) [µM] | Compound | IC50 [4] [nM] | IC50 [1] [nM] | Ki [1] [nM] | IC50 [2] [µM] | IC50 ([3]; Homo sapiens, HL-60, 96 h) [µM] | IC50 [5] [µM] | also measured
1 | 0.8 ± 0.1 | 6.2 ± 0.5 | 43.4 | > 100 | 42.8 | CC[C@@H]1NC(=O)[C@H](CCCNC(=N)N)NC(=O)[C@H](NC(=O)C(C)C)CCNC(=O)[C@@H](c2ccccc2)NC1=O [Cpd. No. 1, N-((3R,6S,9S,12R)-6-ethyl-9-(3-guanidinopropyl)-2,5,8,11-tetraoxo-3-phenyl-1,4,7,10-tetraazacyclotetradecan-12-yl)isobutyramide] (Isobutyryl-[dDab]R[Abu][dPhg]; lactam 1-C) | 1.8 ± 0.4 |  |  |  |  |  | 
2 |  |  |  |  |  | CC[C@@H]1NC(=O)[C@H](CCCNC(=N)N)NC(=O)[C@](C)(NC(=O)C(C)C)CCCCCCCCNC(=O)[C@@H](c2ccccc2)NC1=O [Cpd. No. 77, N-((3R,6S,9S,12R)-6-ethyl-9-(3-guanidinopropyl)-12-methyl-2,5,8,11-tetraoxo-3-phenyl-1,4,7,10-tetraazacycloicosan-12-yl)isobutyramide] | 744 ± 79 | 1.3 ± 0.2 | < 1 | 7.5 ± 3 | > 100 | 21.6 ± 4.8 | 
3 | < 1 | 0.9 ± 0.2 | 0.25 | 8.6 | 0.21 | CC[C@@H]1NC(=O)[C@H](CCCNC(=N)NC)NC(=O)[C@](C)(NC(=O)C(C)C)CCNC(=O)[C@@H](c2ccccc2)NC1=O [Cpd. No. 5, N-((3R,6S,9S,12R)-6-ethyl-12-methyl-9-(3-(3-methylguanidino)propyl)-2,5,8,11-tetraoxo-3-phenyl-1,4,7,10-tetraazacyclotetradecan-12-yl)isobutyramide] (Isobutyryl-[dαMeDab][Arg(Me)][Abu][dPhg]; lactam 1-C) |  |  |  |  |  |  | IC50 ([1]; Table 3A, read-out: Binding Affinity to WDR5 IC50): 2.13 nM; Ki ([1]; Table 3A, read-out: Binding Affinity to WDR5 Ki): < 1 nM; IC50 ([3]; 4 days treatment): 8.56 ± 1.14 µM; selectivity for the MV4;11 and MOLM-13 cell lines harboring MLL translocations over the HL-60 cell line ([3]; cell growth inhibition IC50 ratio): > 30 fold; stability in cell culture media [6]: stable; inhibition of the HMT activity of MLL3 [7]: no or a minimal effect; inhibition of the HMT activity of SET1a [8]: no or a minimal effect; inhibition of the HMT activity of MLL4 [9]: no or a minimal effect; inhibition of the HMT activity of MLL2 [10]: no or a minimal effect; inhibition of the HMT activity of SET1b [11]: no or a minimal effect
4 |  |  |  |  |  | CC[C@@H]1NC(=O)[C@H](CCCNC(=N)N)NC(=O)[C@](C)(NC(=O)C(C)C)CCCCCCNC(=O)[C@@H](c2ccccc2)NC1=O [Cpd. No. 76, N-((3R,6S,9S,12R)-6-ethyl-9-(3-guanidinopropyl)-12-methyl-2,5,8,11-tetraoxo-3-phenyl-1,4,7,10-tetraazacyclooctadecan-12-yl)isobutyramide] | 216 ± 88 | 1 ± 0.2 | < 1 | 3.2 ± 0.4 | 29.7 ± 11.5 | 5.6 ± 0.7 | 
